Assay: Quantum yield
Format: physicochemical
Text: Quantum yield may be obtained by comparison of the integrated area of the corrected emission spectrum of the sample with that of a reference solution. A preferred reference solution is a solution of fluorescein in 0.1 N NaOH, quantum efficiency 0.95. The concentration of the reference is adjusted to match the absorbance of the test sample. The quantum yields may be calculated using the following equation.
Upon addition of excess NO, a 499 nm peak in the UV-vis spectrum of Cu(FL5) in pH 7.0 buffered solution red-shifted back to the λmax characteristic of FL5 or the synthetic FL5−NO compound (504 nm), which differs from the band formed in the reaction of FL5 with 1 equivalent of Cu(I) added as [Cu(CH3CN)4](BF4) (506 nm). […] In addition, the spectrum of the NO reaction solution closely resembled that of the monoanionic fluorescein formed by lowering the pH from 7.0 to 5.0. […] These values are in the range previously reported for N-nitrosamines. The presence of two separate chemical shifts might arise from different isomers in solution, the Δδ of 2.29 being similar to that of previously reported of N-nitrosamines. […] Lastly, FL5−NO is brighter than FL5 or Cu(FL5), the respective quantum yields being ΦFL-NO=0.58±0.02 and ΦFL=0.077±0.002.

quantum yield Φ: 0.077±0.002
SMILES: Cc1ccc2cccc(NCc3c(O)ccc4c(-c5ccccc5C(=O)O)c5cc(Cl)c(=O)cc-5oc34)c2n1 [FL5, 2-{2-chloro-6-hydroxy-5-[(2-methyl-quinolin-8-ylamino)-methyl]-3-oxo-3H-xanthen-9-yl}-benzoic acid]

Source: US7494821B2, “Fluorescein based sensors for tracking nitric oxide in live cells” (Massachusetts Institute of Technology, priority 2005, dated 2009)
